Consider four compounds from US11662342B2, “Barrier function measurements” (MIMETAS B.V., priority 2015, dated 2023).

Series [1] has as its system Caco-2 tubules. Nature of the series: Loss of barrier function of gut tubule (Caco-2) exposed to aspirin (TRITC-dextran 150 kDa). The series is classed as cell-based, human. Particulars: for loss of barrier integrity: imaged every hour for 24 hours. An excerpt: FIG. 11 depicts the loss of barrier function of a gut tubule exposed to aspirin. […] However, the lack of data on concentrations with a maximum response hinders accurate EC50 estimation.

The test system of series [2] is Caco-2 tubules. Nature of the series: Time-to-leak barrier integrity assay, human gut tubule (Caco-2) exposed to staurosporin (TRITC-dextran 150 kDa). Particulars: Caco-2 tubes; imaged every hour for 13 hours; normalized TRITC-dextran fluorescence.
Description: The Caco-2 cell line (Sigma, human colon carcinoma cells) was seeded in a 400 μm 3 lane OrganoPlate® at 10E6 cells/mL, placed on side for cell-ECM attachment for 2 hours, and then placed on a modified rocker platform for continuous medium perfusion. Three days after seeding leak-tightness of the Caco-2 tubules was tested by replacing the medium in the top perfusion channel with medium containing 0.25 mg/mL TRITC dextran 150 kDa. […] Medium in the top medium channel was replaced with medium with TRITC-dextran and increasing concentrations of aspirin. Plate was placed in the ImageXpress Micro XLS under temperature and CO2 controlled conditions and imaged for fluorescent (TRITC) signal every hour for 13 hours. A dose response curve can be extracted at every time point from the time-lapse of the exposed Caco-2 tubes. GraphPad Prism 6 (GraphPad Software Inc., La Jolla, Calif.) was used to fit the dose response curve based on nonlinear regression of the logarithm of the compound concentration versus the normalized fluorescence assuming a top and bottom plateau at 0 and 100% fluorescence.
For series [3], the system named is MDCK tubules. Briefly: Barrier integrity assay, MDCK tubules with staurosporin exposure (FITC-dextran 150 kDa leakage). The note with it: 0, 1, 4, 7 or 10 μM in top perfusion channel, imaged every hour for 15 hours. It counts as cell-based, canine. As to the method:
MDCK (canine) cell line was seeded at 10*10^6 cells/mL in the top perfusion channel of a 400 μm 3-lane OrganoPlate® against a collagen I ECM (Cultrex, Amsbio, 3447-020-01, 4 mg/mL). 60 μL of medium was added to the medium inlet and outlet of the top perfusion channel. Plate was incubated on its side for 3 hours to allow cells to settle on top of the ECM. Three hours after seeding 60 μL medium was added to the medium inlet and outlet of the bottom perfusion channel and plate was placed on a rocker platform for continuous medium perfusion (angle 7°, tilt every 8 min). […] Volumes were 40 μL inlet/30 μL outlet in top perfusion channel, 0 μL inlet/0 μL outlet in the middle ECM channel, 20 μL inlet/20 μL outlet standard culture medium in the bottom perfusion channel. […]
Fluorescent signal intensity of the FITC-dextran 150 kDa was quantified in the top perfusion channel and in the gel channel of FIG. 4 using FIJI analysis software (Schindelin, J.; Arganda-Carreras, I. & Frise, E. et al. (2012), “Fiji: an open-source platform for biological-image analysis”, Nature methods 9(7): 676-682, PMID 22743772). […] The time-to-leakage value (e.g. 2 hours after compound addition) will have to be determined based on validation experiments to ensure maximal in vivo relevance. […]

The next series relates to LLC-PK1 tubules. Nature of the series: Barrier integrity assay, LLC-PK1 tubules with staurosporin exposure (FITC-dextran 150 kDa leakage). It counts as cell-based, pig. The note with it: 0, 1, 5 or 10 μM in top perfusion channel, imaged every 15 min for 16 hours. As to the method:
The integrity of a cellular barrier, cultivated for example as described in FIGS. 1 and 2, can be probed by replacing the medium in the perfusion channel by medium containing 500 μg/mL FITC-dextran 150 kDa (Sigma, 46946). A) If the cellular barrier is leak-tight the fluorescent signal will be contained in the perfusion channel, whereas in the microfluidic chip with no cells, just ECM in the gel channel, the fluorescent signal will enter the ECM and will saturate within minutes. The fluorescent signal in the perfusion and gel channel can be monitored real time using time-lapse fluorescent microscopy, as for example with the ImageXpress Micro (Molecular Devices). B) Fluorescent signal intensity of the FITC-dextran 150 kDa was quantified in the top perfusion channel and in the gel channel using FIJI analysis software (Schindelin, J.; Arganda-Carreras, I. & Frise, E. et al. (2012), “Fiji: an open-source platform for biological-image analysis”, Nature methods 9(7): 676-682, PMID 22743772). C) The intensity of the gel channel was divided by the intensity of the top perfusion channel and the ratio was plotted against the time after start of fluorescent reporter addition. Without a cellular barrier the ECM is saturated within minutes after dye addition whereas a ratio close to zero is maintained as long as the cellular barrier is intact. […]

Series [4] relates to MDCK tubules. The series is classed as cell-based, canine. An excerpt:
The 3 lane OrganoPlate® offers the unique possibility to add a compound from only the apical or the basolateral side of the tubular structure. […] Actively transported compounds can have directionality in the trans-cellular transport, as is for example the situation in the renal proximal tubules, where moving compounds specifically from the apical side of the tube to the basolateral side, or the other way around, is part of the renal filtering function. This implies toxic compounds that are actively transported by the proximal tubule cells can have a different effect depending on the location of exposure. The anti-cancer drug cisplatin is taken up by cells by the OCT-2 transporter that is expressed on the basal side of the epithelial monolayer. MDCK cells were seeded in the top channel of a 200 μm 3 lane OrganoPlate® against a collagen I ECM at 10E6 cells/mL. Three days after seeding MDCK tubules were exposed to increasing concentrations of cisplatin from either the apical or basal side by replacing the medium either in the top medium channel, or in the bottom medium channel, with medium with cisplatin. At the start of the exposure the medium in the top channel was also supplied with a fluorescent leakage marker, FITC-dextran 150 kDa.

The subject of series [5] is human proximal tubule cells (RPTEC). Nature of the series: Drug induced loss of barrier integrity of human kidney proximal tubule (RPTEC), Kaplan-Meier plot. It counts as cell-based. The note with it: RPTEC tubules; increasing concentrations; imaged every hour for 60 hours; versus medium, vehicle control 1 and 2. An excerpt: After eight days in culture >95% of the seeded tubules were shown leak-tight by addition of FITC-dextran 150 kDa to the medium in the luminal compartment. Medium in the tubes was replaced with medium containing increasing concentrations of the renal toxicant amphotecerin B and the fluorescent FITC-dextran. […] IC indicates an inhibitor cocktail of 3 efflux transporter inhibitors.

In the case of `CC(=O)Oc1ccccc1C(=O)O` [aspirin], the “loss of barrier integrity” value with Caco-2 tubules [1] (3.7 mM) is given as “loss of barrier integrity”; in the series on Caco-2 tubules [1] (12 mM (12.12 mM)), “clear loss of barrier integrity”; with Caco-2 tubules [1] (40 mM), “clear loss of barrier integrity”. Besides, the “exposure time at which a 50% effect was observed” value came out at 20 h in the series with Caco-2 tubules [1] (12 mM) and 10 h in the series on Caco-2 tubules [1] (40 mM).

Take `CN[C@@H]1C[C@H]2O[C@@](C)([C@@H]1OC)n1c3ccccc3c3c4c(c5c6ccccc6n2c5c31)C(=O)NC4` [staurosporin]: the “dose response curve of barrier leakage with increasing exposure times” value in the series on Caco-2 tubules [2] is listed as “shift towards lower compound concentrations”. Further, in the series on MDCK tubules [3], the “integrity of the MDCK barrier with increasing concentrations” value was “breaks at an earlier time point”. The “integrity of the LLC-PK1 barrier with increasing concentrations” value with LLC-PK1 tubules is “breaks at an earlier time point”.

As for `N.N.[Cl][Pt][Cl]` [cisplatin], in the series with MDCK tubules [4], the “time-to-leak, tubes exposed from the basal side versus apical exposed tubes” value is “significantly earlier”.

As for amphotecerin B, the “survival of tube integrity, exposed versus unexposed tubes” value in series [5] is given as “significant difference”.
